Our source for the DC50 values is US20240287076A1, “COMPOUNDS FOR TARGETING DEGRADATION OF BRUTON'S TYROSINE KINASE” (BIOGEN MA INC., priority 2021, published 2024).

SMILES strings stand for the structures.

In this assay the target is T1, BTK (Homo sapiens, UniProt Q06187).
T1 construct: The GM01501.3 cell line endogenously expresses BTK with a HiBiT fusion tag via CRISPR knock-in at its C-terminal region; endogenous in cells; host or cells: GM01501.3 (GM01501 cells engineered by CRISPR knock-in of HiBiT at the BTK locus)
T1 sequence (Q06187 whole entry, the tested form may be a part): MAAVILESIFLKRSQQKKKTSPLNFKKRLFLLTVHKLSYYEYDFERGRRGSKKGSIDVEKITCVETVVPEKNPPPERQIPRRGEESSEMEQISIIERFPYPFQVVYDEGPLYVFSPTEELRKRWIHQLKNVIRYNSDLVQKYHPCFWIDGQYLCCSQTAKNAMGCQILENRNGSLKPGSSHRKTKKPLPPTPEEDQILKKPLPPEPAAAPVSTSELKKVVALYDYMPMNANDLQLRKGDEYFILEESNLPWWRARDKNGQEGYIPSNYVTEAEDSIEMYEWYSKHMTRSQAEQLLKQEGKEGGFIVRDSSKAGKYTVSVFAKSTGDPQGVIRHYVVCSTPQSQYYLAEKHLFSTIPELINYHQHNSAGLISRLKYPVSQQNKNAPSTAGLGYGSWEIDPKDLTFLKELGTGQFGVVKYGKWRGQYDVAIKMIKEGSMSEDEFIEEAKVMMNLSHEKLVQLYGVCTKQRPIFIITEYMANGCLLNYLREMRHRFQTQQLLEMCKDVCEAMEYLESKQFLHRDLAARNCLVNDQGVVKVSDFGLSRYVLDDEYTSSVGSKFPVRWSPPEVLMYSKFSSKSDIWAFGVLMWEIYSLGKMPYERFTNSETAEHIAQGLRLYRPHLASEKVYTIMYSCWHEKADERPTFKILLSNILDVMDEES
Kind of assay: BTK degradation assay using the HiBiT Method (Nano-Glo HiBiT Lytic Assay, GM01501.3 cells). The following applies: HiBiT Degradation on GM01501.3 BTK @ 6 hours. Type of assay: cell-based. The method, boiled down: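 Degradation read-out: HiBiT luminescence after lytic reagent addition, giving DC50. Compounds dosed from 10 μM in 11 half-log steps (duplicate) onto GM01501.3 cells, whose endogenous BTK carries a C-terminal HiBiT knock-in tag; 6 h exposure, 37 °C, 5% CO2.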
What is called DC50 is the concentration giving 50% degradation. High values mean a less potent degrader, low ones a more potent degrader. In turn, `Cc1cc(-c2ccnc3cn(CCCCN4CCC(c5ccc(NC6CCC(=O)NC6=O)cc5)CC4)nc23)ccc1CNC(=O)c1noc(C(C)(C)C)n1` (centres unmarked) [Example 224, 5-tert-butyl-N-[[4-[2-[4-[4-[4-[(2,6-dioxo-3-piperidyl)amino]phenyl]-1-piperidyl]butyl]pyrazolo[4,3-b]pyridin-7-yl]-2-methyl-phenyl]methyl]-1,2,4-oxadiazole-3-carboxamide] registered a DC50 below 0.1 µM. Under `Cc1cc(-c2ncnn3cc(COCCN4CCC(c5ccc(NC6CCC(=O)NC6=O)cc5)CC4)cc23)ccc1CNC(=O)c1noc(C(C)(C)C)n1` (centres unmarked) [Example 143, 5-tert-butyl-N-[[4-[6-[2-[4-[4-[(2,6-dioxo-3-piperidyl)amino]phenyl]-1-piperidyl]ethoxymethyl]pyrrolo[2,1-f][1,2,4]triazin-4-yl]-2-methyl-phenyl]methyl]-1,2,4-oxadiazole-3-carboxamide] stands below 0.1 µM.

In turn, `Cc1cc(-c2ncnn3cc(-c4ccc(C(=O)Nc5cccc6c5CCN(C5CCC(=O)NC5=O)C6)cc4)cc23)ccc1CNC(=O)c1noc(C(C)(C)C)n1` (centres unmarked) [Example 194, 5-(tert-butyl)-N-(4-(6-(4-((2-(2,6-dioxopiperidin-3-yl)-1,2,3,4-tetrahydroisoquinolin-5-yl)carbamoyl)phenyl)pyrrolo[2,1-f][1,2,4]triazin-4-yl)-2-methylbenzyl)-1,2,4-oxadiazole-3-carboxamide] yielded a 50% degradation concentration (DC50) below 0.1 µM. `Cc1cc(-c2ncnn3cc(-c4cn(C)c(CN5CCC(c6ccc(C7CCC(=O)NC7=O)cc6)CC5)n4)cc23)ccc1CNC(=O)c1noc(C(C)(C)C)n1` (centres unmarked) [Example 209, 5-(tert-butyl)-N-(4-(6-(2-((4-(4-(2,6-dioxopiperidin-3-yl)phenyl)piperidin-1-yl)methyl)-1-methyl-1H-imidazol-4-yl)pyrrolo[2,1-f][1,2,4]triazin-4-yl)-2-methylbenzyl)-1,2,4-oxadiazole-3-carboxamide]: the DC50 was below 0.1 µM.

Take `Cc1cc(-c2ncnn3cc(N4CCN(C(=O)CC5CC6(C5)CN(C(=O)c5ccc(OC7CCC(=O)NC7=O)cc5)C6)CC4)cc23)ccc1CNC(=O)c1noc(C(C)(C)C)n1` (centres unmarked) [Example 185, 5-(tert-butyl)-N-(4-(6-(4-(2-(2-(4-((2,6-dioxopiperidin-3-yl)oxy)benzoyl)-2-azaspiro[3.3]heptan-6-yl)acetyl)piperazin-1-yl)pyrrolo[2,1-f][1,2,4]triazin-4-yl)-2-methylbenzyl)-1,2,4-oxadiazole-3-carboxamide]: the DC50 was below 0.1 µM.

`Cc1cc(-c2ncnn3cc(CCCCN4CCC(c5ccc(NC6CCC(=O)NC6=O)cc5)CC4)cc23)ccc1CNC(=O)c1noc(C(C)(C)C)n1` (centres unmarked) [Example 130, 5-tert-butyl-N-[[4-[6-[4-[4-[4-[(2,6-dioxo-3-piperidyl)amino]phenyl]-1-piperidyl]butyl]pyrrolo[2,1-f][1,2,4]triazin-4-yl]-2-methyl-phenyl]methyl]-1,2,4-oxadiazole-3-carboxamide] gave a DC50 below 0.1 µM. Under `COc1cc(CN2CCC(c3ccc(C4CCC(=O)NC4=O)cc3)CC2)ccc1-c1cc2c(-c3ccc(CNC(=O)c4noc(C(C)(C)C)n4)c(C)c3)ncnn2c1` (centres unmarked) [Example 22, 5-tert-butyl-N-[[4-[6-[4-[[4-[4-(2,6-dioxo-3-piperidyl)phenyl]-1-piperidyl]methyl]-2-methoxy-phenyl]pyrrolo[2,1-f][1,2,4]triazin-4-yl]-2-methyl-phenyl]methyl]-1,2,4-oxadiazole-3-carboxamide] stands below 0.1 µM; under `Cn1nc(N2CCC(=O)NC2=O)c2ccc(C3CCN(Cc4ccc(-c5cc6c(-c7ccc(CNC(=O)c8noc(C(C)(C)C)n8)c(F)c7)ncnn6c5)nc4)CC3)cc21` [Example 243, 5-(tert-butyl)-N-(4-(6-(5-((4-(3-(2,4-dioxotetrahydropyrimidin-1(2H)-yl)-1-methyl-1H-indazol-6-yl)piperidin-1-yl)methyl)pyridin-2-yl)pyrrolo[2,1-f] [1,2,4]triazin-4-yl)-2-fluorobenzyl)-1,2,4-oxadiazole-3-carboxamide], below 0.1 µM.

Turning to `Cc1ccc(C(=O)NCc2ccc(-c3ncnn4cc(-c5ccc(CN6CCC(c7ccc(NC8CCC(=O)NC8=O)cc7)CC6)cc5)cc34)cc2C)c(F)c1` (centres unmarked) [Example 95, N-[[4-[6-[4-[[4-[4-[(2,6-dioxo-3-piperidyl)amino]phenyl]-1-piperidyl]methyl]phenyl]pyrrolo[2,1-f][1,2,4]triazin-4-yl]-2-methyl-phenyl]methyl]-2-fluoro-4-methyl-benzamide], the DC50 was below 0.1 µM. The figure for `Cc1cc(-c2ncnn3cc(CCN4CCC(c5ccc(NC6CCC(=O)NC6=O)cc5)CC4)cc23)ccc1CNC(=O)c1noc(C(C)(C)C)n1` (centres unmarked) [Example 117, 5-tert-butyl-N-[[4-[6-[2-[4-[4-[(2,6-dioxo-3-piperidyl)amino]phenyl]-1-piperidyl]ethyl]pyrrolo[2,1-f][1,2,4]triazin-4-yl]-2-methyl-phenyl]methyl]-1,2,4-oxadiazole-3-carboxamide] is below 0.1 µM; for `Cc1cc(-c2ncnn3cc(N4CCN(C(=O)[C@@H]5CCC[C@H](NC(=O)c6ccc(OC7CCC(=O)NC7=O)cc6)C5)CC4)cc23)ccc1CNC(=O)c1noc(C(C)(C)C)n1` (stereo partly drawn) [Example 188, 5-(tert-butyl)-N-(4-(6-(4-((1R,3S)-3-(4-((2,6-dioxopiperidin-3-yl)oxy)benzamido)cyclohexane-1-carbonyl)piperazin-1-yl)pyrrolo[2,1-f][1,2,4]triazin-4-yl)-2-methylbenzyl)-1,2,4-oxadiazole-3-carboxamide] it is below 0.1 µM. Under `Cc1cc(-c2ncnn3cc(-c4ccc(CN5CCC(c6ccc(NC7CCC(=O)NC7=O)cc6)CC5)cc4)cc23)ccc1CNC(=O)N1CCC(OC(C)(C)C)C1` (centres unmarked) [Example 98, 3-tert-butoxy-N-[[4-[6-[4-[[4-[4-[(2,6-dioxo-3-piperidyl)amino]phenyl]-1-piperidyl]methyl]phenyl]pyrrolo[2,1-f][1,2,4]triazin-4-yl]-2-methyl-phenyl]methyl]pyrrolidine-1-carboxamide] stands below 0.1 µM; under `Cc1cc(-c2ncnn3cc(-c4ccc(CN5CCC(c6ccc(NC7CCC(=O)NC7=O)cc6)CC5)cc4)cc23)ccc1CNC(=O)c1ccc(C(C)C)nn1` (centres unmarked) [Example 92, N-[[4-[6-[4-[[4-[4-[(2,6-dioxo-3-piperidyl)amino]phenyl]-1-piperidyl]methyl]phenyl]pyrrolo[2,1-f][1,2,4]triazin-4-yl]-2-methyl-phenyl]methyl]-6-isopropyl-pyridazine-3-carboxamide], below 0.1 µM; under `Cc1cc(-c2ncnn3cc(-c4cc(CN5CCC(c6ccc(C7CCC(=O)NC7=O)cc6)CC5)ccn4)cc23)ccc1CNC(=O)c1noc(C(C)(C)C)n1` (centres unmarked) [Example 216, 5-(tert-butyl)-N-(4-(6-(4-((4-(4-(2,6-dioxopiperidin-3-yl)phenyl)piperidin-1-yl)methyl)pyridin-2-yl)pyrrolo[2,1-f][1,2,4]triazin-4-yl)-2-methylbenzyl)-1,2,4-oxadiazole-3-carboxamide], below 0.1 µM. The figure for `Cc1cc(-c2ncnn3cc(N4CCN(C(=O)c5ncoc5CNC(=O)c5ccc(OC6CCC(=O)NC6=O)cc5)CC4)cc23)ccc1CNC(=O)c1noc(C(C)(C)C)n1` (centres unmarked) [Example 189, 5-(tert-butyl)-N-(4-(6-(4-(5-((4-((2,6-dioxopiperidin-3-yl)oxy)benzamido)methyl)oxazole-4-carbonyl)piperazin-1-yl)pyrrolo[2,1-f][1,2,4]triazin-4-yl)-2-methylbenzyl)-1,2,4-oxadiazole-3-carboxamide] is below 0.1 µM. Compound `Cc1cc(-c2ncnn3cc(CCN4CCC(c5ccc(OC6CCC(=O)NC6=O)cc5)CC4)cc23)ccc1CNC(=O)c1noc(C(C)(C)C)n1` (centres unmarked) [Example 118, 5-tert-butyl-N-[[4-[6-[2-[4-[4-[(2,6-dioxo-3-piperidyl)oxy]phenyl]-1-piperidyl]ethyl]pyrrolo[2,1-f][1,2,4]triazin-4-yl]-2-methyl-phenyl]methyl]-1,2,4-oxadiazole-3-carboxamide] registered a DC50 below 0.1 µM.

As to `Cc1cc(-c2ncnn3cc(-c4cn5c(CN6CCC(c7ccc(C8CCC(=O)NC8=O)cc7)CC6)cnc5s4)cc23)ccc1CNC(=O)c1noc(C(C)(C)C)n1` (centres unmarked) [Example 210, 5-(tert-butyl)-N-(4-(6-(5-((4-(4-(2,6-dioxopiperidin-3-yl)phenyl)piperidin-1-yl)methyl)imidazo[2,1-b]thiazol-2-yl)pyrrolo[2,1-f][1,2,4]triazin-4-yl)-2-methylbenzyl)-1,2,4-oxadiazole-3-carboxamide], the DC50 is 0.1 to 0.5 µM. Regarding `Cc1cc(-c2ncnn3cc(-c4ccc(CN5CCC(c6ccc(NC7CCC(=O)NC7=O)cc6)CC5)cc4)cc23)ccc1CNC(=O)c1ncc(C(C)(C)C)o1` (centres unmarked) [Example 86, 5-tert-butyl-N-[[4-[6-[4-[[4-[4-[(2,6-dioxo-3-piperidyl)amino]phenyl]-1-piperidyl]methyl]phenyl]pyrrolo[2,1-f][1,2,4]triazin-4-yl]-2-methyl-phenyl]methyl]oxazole-2-carboxamide], the DC50 is below 0.1 µM. `Cc1cc(-c2ncnn3cc(-c4ccc(CN5CCC(c6ccc(NC7CCC(=O)NC7=O)cc6)CC5)cc4)cc23)ccc1CNC(=O)c1coc(C(C)(C)C)n1` (centres unmarked) [Example 78, 2-tert-butyl-N-[[4-[6-[4-[[4-[4-[(2,6-dioxo-3-piperidyl)amino]phenyl]-1-piperidyl]methyl]phenyl]pyrrolo[2,1-f][1,2,4]triazin-4-yl]-2-methyl-phenyl]methyl]oxazole-4-carboxamide] had a DC50 below 0.1 µM. The figure for `CC(C)(C)c1nc(C(=O)NCc2ccc(-c3ncnn4cc(-c5ccc(CN6CCN(c7ccc(C8CCC(=O)NC8=O)cn7)CC6)cc5)cc34)cc2F)no1` (centres unmarked) [Example 36, 5-tert-butyl-N-[[4-[6-[4-[[4-[5-(2,6-dioxo-3-piperidyl)-2-pyridyl]piperazin-1-yl]methyl]phenyl]pyrrolo[2,1-f][1,2,4]triazin-4-yl]-2-fluoro-phenyl]methyl]-1,2,4-oxadiazole-3-carboxamide] is below 0.1 µM.
